Source: the SangsterLogP compilation

Experiment: method code SF-CR, from PMID: 5159517

Compound: COc1cnc(NS(=O)(=O)c2ccc(N)cc2)nc1
- logP: 0.41
